Laboratory results published in ChEMBL document CHEMBL1201862, “PubChem BioAssay data set” (2004).
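1) Cells in 96-well plates. 2) Compound, 48 h, 5 concentrations. 3) Linear interpolation between surrounding doses. 4) Unreached endpoint = highest concentration. GI50: concentration for 50% inhibition of growth.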 Active and inactive are the calls of the source. Rule as the data show it: active = GI50 up to about 1.1 µM and inactive = higher.

Assays:
Assay in all cases: inhibition of tumour cell growth, NCI panel, 48 h
[1] = test system: SF-295
[2] = test system: DU-145
[3] = test system: NCI-H226
[4] = test system: HOP-92
[5] = test system: BT-549
[6] = test system: 786-0
[7] = test system: T47D
[8] = test system: TK-10
[9] = test system: UACC-257
[10] = test system: EKVX
[11] = test system: OVCAR-8
[12] = test system: U-251
[13] = test system: COLO 205
[14] = test system: OVCAR-5
[15] = test system: K562
[16] = test system: NCI-H23
[17] = test system: SK-MEL-2
[18] = test system: KM12
[19] = test system: LOX IMVI
[20] = test system: M19-MEL

Measured: GI50

S=C1NCN2CCN(CC2)CNC(=S)C(=S)NCN2CCN(CC2)CNC1=S
inactive: [1] > 100 µM | [2] 36.8 µM | [3] > 100 µM | [4] 62.1 µM | [5] 59 µM | [6] 45.1 µM | [7] > 100 µM | [8] > 100 µM | [9] 42.7 µM | [10] 40.9 µM | [11] 31.8 µM | [12] 37.7 µM | [13] 35.6 µM | [14] > 100 µM | [15] 27.3 µM | [16] 43 µM | [17] 43.2 µM | [18] > 100 µM | [19] 22.3 µM

O=C(O)c1ccc(CNCc2ccccc2)cc1
inactive: [1] > 100 µM | [2] > 100 µM | [3] > 100 µM | [4] > 100 µM | [5] > 100 µM | [6] > 100 µM | [7] > 100 µM | [8] > 100 µM | [9] > 100 µM | [10] > 100 µM | [11] > 100 µM | [12] > 100 µM | [13] > 100 µM | [14] > 100 µM | [15] > 100 µM | [16] > 100 µM | [17] > 100 µM | [18] > 100 µM | [19] > 100 µM

[O-][S+]1c2ccccc2N=C(c2cccc3ccccc23)CC1c1cccc2ccccc12 (stereo not given)
inactive: [1] 32.1 µM | [3] 21.1 µM | [6] 24.5 µM | [8] 31.2 µM | [20] 2.01 µM | [9] 17.1 µM | [10] 21.4 µM | [11] 18.9 µM | [12] 18.6 µM | [13] 20.9 µM | [14] 31.6 µM | [15] 30.8 µM | [16] 20.3 µM | [17] 17.5 µM | [18] 15.2 µM | [19] 13.6 µM

COC(=O)/C(=N\Nc1nc(S)nn1N)C(C#N)c1ccccc1 (stereo not given)
inactive: [3] > 100 µM | [6] > 100 µM | [8] > 100 µM | [20] > 100 µM | [9] > 100 µM | [10] > 100 µM | [11] > 100 µM | [12] > 100 µM | [13] > 100 µM | [14] > 100 µM | [15] > 100 µM | [16] > 100 µM | [17] > 100 µM | [18] > 100 µM | [19] > 100 µM

Cc1cc(=O)n2nc(CSc3nnc(Sc4cc(O)ccc4O)s3)sc2n1
inactive: [1] > 100 µM | [2] > 100 µM | [3] > 100 µM | [4] 35.4 µM | [5] 39.3 µM | [6] 41.3 µM | [7] 32.1 µM | [8] > 100 µM | [9] > 100 µM | [10] 99.3 µM | [11] 67.1 µM | [12] 35.8 µM | [13] 68.5 µM | [14] > 100 µM | [15] 21.5 µM | [16] > 100 µM | [17] > 100 µM | [18] > 100 µM | [19] 21.7 µM

COc1cc(/C=C(\NC(=O)c2ccccc2)c2nc3c(O)nc(S)nc3[nH]2)cc(OC)c1OC
inactive: [1] > 100 µM | [4] 59.3 µM | [6] > 100 µM | [8] > 100 µM | [20] > 100 µM | [10] > 100 µM | [11] > 100 µM | [12] > 100 µM | [13] > 100 µM | [14] > 100 µM | [15] > 100 µM | [16] > 100 µM | [17] > 100 µM | [18] > 100 µM

CC(C)(C)OC(=O)N1C/C=C\C(=O)C2(OCCO2)c2ccccc21
inactive: [1] 26.4 µM | [2] 28.6 µM | [3] 19.1 µM | [4] 15.9 µM | [5] 22.5 µM | [6] 23.9 µM | [7] 21.3 µM | [8] 24.3 µM | [9] 20.8 µM | [10] 31.3 µM | [11] 24.9 µM | [12] 29.9 µM | [13] 17.7 µM | [14] > 100 µM | [15] 22 µM | [16] 36.1 µM | [17] 24.5 µM | [18] 31.6 µM | [19] 16.7 µM

CCOC(=O)c1c(SCCO)n(-c2ccccc2)c(=S)n(-c2ccccc2)c1=O
inactive: [1] > 100 µM | [2] > 100 µM | [3] > 100 µM | [4] > 100 µM | [5] > 100 µM | [6] > 100 µM | [7] > 100 µM | [8] > 100 µM | [9] > 100 µM | [10] > 100 µM | [11] > 100 µM | [12] > 100 µM | [13] > 100 µM | [14] > 100 µM | [15] > 100 µM | [16] > 100 µM | [17] > 100 µM | [18] > 100 µM | [19] > 100 µM

CCCC(Sc1ccccc1)P(=O)(c1ccccc1)c1ccccc1 (stereo not given)
inactive: [1] 27.8 µM | [4] 21.8 µM | [6] 37.7 µM | [8] 40 µM | [20] 34.6 µM | [9] 35.1 µM | [10] 24 µM | [11] 36.2 µM | [12] 23.5 µM | [13] 31.4 µM | [15] 29.9 µM | [16] 35.6 µM | [18] 38.7 µM | [19] 35.6 µM

CC(=O)OCCOCNC(=S)N/N=C(\C)c1ccco1
inactive: [1] > 100 µM | [3] 64.6 µM | [6] > 100 µM | [8] > 100 µM | [20] > 100 µM | [9] > 100 µM | [10] > 100 µM | [11] > 100 µM | [12] > 100 µM | [13] > 100 µM | [14] > 100 µM | [15] > 100 µM | [16] > 100 µM | [17] > 100 µM | [18] > 100 µM | [19] > 100 µM

C1CN2CCO[SiH](O1)OCC2
inactive: [1] > 100 µM | [3] > 100 µM | [6] > 100 µM | [8] > 100 µM | [20] > 100 µM | [9] > 100 µM | [10] > 100 µM | [11] > 100 µM | [12] > 100 µM | [13] > 100 µM | [15] > 100 µM | [16] > 100 µM | [17] > 100 µM | [18] > 100 µM

COC(=O)[C@@]1(C)C(=O)CC[C@@H]1C=O
inactive: [1] > 100 µM | [3] > 100 µM | [6] > 100 µM | [8] > 100 µM | [20] > 100 µM | [9] > 100 µM | [10] > 100 µM | [11] > 100 µM | [12] > 100 µM | [13] > 100 µM | [14] > 100 µM | [15] > 100 µM | [16] > 100 µM | [17] > 100 µM | [18] > 100 µM | [19] > 100 µM
